Assay results published in US6689762B1, “Composition and methods for treatment of HIV infection” (Enzon Pharmaceuticals, Inc., priority 1998, dated 2004).
Several values for one entry are separate records, joined by “and”; a condition that tells them apart may be missing. Equal entries are not always repeated.

Key:
[1] = test system: HIV-RT levels of HIV-1 infected CEM/0 cell pellets; assay: HIV-RT ELISA (Reverse Transcriptase Assay, non-radioactive) in cell pellets of HIV-1 infected CEM/0 T-cells; assay type: cell-based; conditions: Table 9
Excerpt: The following is a general procedure for the HIV-reverse transcriptase assay:
The cell line used for these studies is CCRF/CEM/O, a human T-leukemic cell line. PEG-ASNase (ONCASPAR) is provided by Rhone-Poulenc Rorer. Saquinavir is commercially available. RPMI-1640 media (Irvine Scientific, Irvine, Calif.) is enriched with 10% Fetal Calf Serum (Gemini Biosource, Calabasas, Calif.), 5% 1M Hepes Buffer solution and 5% Non-essential amino acids (Irvine Scientific, Irvine, Calif.). The drug concentrations used are as follows:
Briefly, 2×10^6 cells/ml are stimulated with PHA+ media for 48 hours at 37° C. with 5% CO2. Also, the same number of cells are incubated in PHA(phytohemagglutinin) free media for 48 hours to serve as the negative control. At this point the cells are inoculated with the HIV-1 virus as per standard protocol. PEG-ASNase and/or Saquinavir are added to the cells in the appropriate concentrations (see above). The control cells are resuspended in drug-free media for the duration of the exposure which lasted seven days. At day five, two 1 ml aliquots of media are removed from the flasks and stored under liquid nitrogen. At day seven, two more 1 ml aliquots of media are removed from the flasks and stored under liquid nitrogen. In addition, the remaining cells are pelleted and stored at −80° C.
The samples produced from this experiment are itemized and then assayed for HIV-RT using the Reverse Transcriptase Assay, non-radioactive (Boehringer Mannheim). The standard curve is determined and the HIV-RT levels for the experimental samples are calculated.
This experiment is carried out using a similar procedure, and the same concentrations of materials as in Experiment 7, however the exposure of the HIV virus in T-cell pellets to PEG-ASNase and Saquinavir alone, and in combination is measured. It should be noted that “PEG” in Table 2a represents PEG-ASNase. […]

[2] = test system: HIV-RNA in supernatant of HIV-1 infected CEM/0 T-cells; assay: HIV-1 quantitative RNA assay (HIV-1 Monitor) in supernatants of CEM/0 T-cells; assay type: cell-based; parameters: inhibition of HIV-RNA in the supernatants in comparison to untreated control / % OF CONTROL / % control: concentration or dose not given beside the values
Excerpt: It should be noted that “PEG” in Table 3 represents PEG-ASNase.
Materials and Methods: The cell line used for these studies is CEM/0, a human T-cell leukemic cell line. PEG-ASNase (ONCASPAR) is provided by Rhone-Poulenc Rorer. Saquinavin is commercially available. AZT is purchased from Sigma. MISID, a ribonucleotide reductase inhibitor, is as described in Nandy P, Lien E J, Avramis V I, Med. Chem. Res. 1995, 5:664-679. RPMI-1640 media (Irvine Scientific, Irvine, Calif.), is enriched with 10% Fetal Calf Serum (Gemini Biosource, Calabasas, Calif.), 5% 1M Hepes Buffer solution and 5% Non-essential amino acids (Irvine Scientific, Irvine, Calif.). The drug concentrations used are as follows:
Briefly, 3×10^6 cells/ml are stimulated with PHA+ media for 48 hours at 37° C. with 5% CO2. Also, the same number of cells are incubated in PHA free media for 48 hours to serve as the negative control. At this point the cells are inoculated with the HIV-1 virus as per standard protocol. Note that in this experiment, the HIV containing supernatant from the PHA-stimulated healthy human peripheral mononuclear cells (PBMC) is not removed from the PHA-stimulated CEM/0 cell culture. […] These virus particles are continuously released by already infected T-cells and/or lymph nodes of patients.
The experimental drugs are added to the cells in the appropriate concentrations at the same time as viral inoculation or 90 minutes after the viral incubation, a time sufficient for the T-cells to be infected and start producing new HIV-1 virus particles. The control cells are resuspended in drug-free media for the duration of the exposure which lasted seven days. Aliquots of media from the control flasks only are obtained on day 5 post Rx. At day seven, three 1 ml each, aliquots of media are removed from the flasks and stored under liquid nitrogen. In addition, the remaining cells are split into three and then pelleted and stored at −80° C. Supernatant specimens are obtained form these T-cell cultures and are frozen at −80° C. The samples produced from this experiment are itemized. The cell pellets of the cellular cultures (see Experiment 9) from the 90 minute viral incubation flasks are assayed for HIV-RNA quantitative assay using a kit for the assay, non-radioactive. […] The standard curve is determined and the HIV-RNA levels for the experimental samples are calculated and reported previously.
This experiment is carried out using a similar procedure, and the same concentrations of materials as in Experiment 10, however the exposure of HIV-RNA in T-cell supernatants to a combination of PEG-ASNase, Saquinavir, AZT and 3TC is measured. It should be noted that “PEG” in Table 10 represents PEG-ASNase.

## Nc1ccn([C@@H]2CS[C@H](CO)O2)c(=O)n1 [3TC, lamivudine]
[1]
  MEAN X3 (HIV-RT): 0.004 ng/well
[2]; Table 10
  MEAN: 1752 copies/mL
[2]; Table 10, per specimen, day 7 post Rx, PEG 0.400 IU/ml, SAQ 25 uM, AZT 1 uM, 3TC 1 uM, combinations PEG 0.233 IU/ml + SAQ 14.52 uM
  N*: 1700 copies/mL and 1836 copies/mL and 1719 copies/mL
[2]; Table 10 and Experiment 11
  % OF CONTROL: 39.58%
